Measurements reported in patent publication US6552060B1, “Asymmetric disulfides and methods of using same” (Prolx Pharmaceuticals, Inc., priority 1997, dated 2003).
Where “and” joins values, the source holds several entries; their conditions need not be identical. Identical values can stand only once. Entries after “also recorded” stand apart in the source; their conditions may differ. Like-named read-outs stand apart in the source and are kept apart here. Marks after values point to notes of the source that are not given here.

What was measured:
[1] = target: T1, TR/Trx (Homo sapiens, UniProt Q16881); assay: Thioredoxin dependent reduction of insulin by human thioredoxin reductase and NADPH (IC50 TR/Trx, 96 well); type: biochemical
T1 sequence (Q16881 1-499 isoform Q16881-5): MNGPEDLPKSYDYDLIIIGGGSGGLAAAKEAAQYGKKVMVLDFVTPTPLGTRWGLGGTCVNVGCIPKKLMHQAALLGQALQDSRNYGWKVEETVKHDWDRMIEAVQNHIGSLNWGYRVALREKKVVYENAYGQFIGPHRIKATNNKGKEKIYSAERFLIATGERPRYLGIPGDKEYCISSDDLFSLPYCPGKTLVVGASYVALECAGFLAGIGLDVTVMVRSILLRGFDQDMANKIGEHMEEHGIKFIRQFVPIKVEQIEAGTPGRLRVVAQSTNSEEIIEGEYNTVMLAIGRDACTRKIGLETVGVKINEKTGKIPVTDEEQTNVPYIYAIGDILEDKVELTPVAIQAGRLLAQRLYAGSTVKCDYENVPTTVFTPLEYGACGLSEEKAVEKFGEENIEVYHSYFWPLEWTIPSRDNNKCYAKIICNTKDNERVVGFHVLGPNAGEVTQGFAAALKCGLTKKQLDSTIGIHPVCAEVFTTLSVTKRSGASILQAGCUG
Description: When referring to the particular system being analyzed IC50 is typically followed by an abbreviation referring to that system (i.e., IC50 TR/Trx for the above described thioredoxin redox system which is comprised of thioredoxin reductase and thioredoxin).
A second plate was used for the assessment of biological activity or as a biological screen. Aliquots of disulfides dissolved in DMSO, were be transferred into 96 well plates. The assay to assess their ability to inhibit thioredoxin reductase measures the thioredoxin dependent reduction of insulin by human thioredoxin reductase and NADPH. The effects of the disulfides on the reduction of Trx by TR were measured spectrophotometrically by following the reduction of NADPH at 339 nm with insulin as the final electron acceptor in a buffered mixture of TR, Trx, NADPH and insulin.

[2] = tested on: EMT6 mouse mammary tumor cells; assay: Cytotoxicity against EMT6 cells in culture (MTT); conditions: read-out: Disulfide Cytotoxicity (IC50), Table 5, 48 h exposure
[3] = target: T2, Human placental thioredoxin reductase (Homo sapiens, UniProt Q16881); assay: NADPH oxidation by thioredoxin reductase with the disulfide as substrate, or with thioredoxin and insulin as final electron acceptor and the disulfide as inhibitor; type: biochemical; conditions: for Type: behaviour towards thioredoxin reductase: substrate, inhibitor or non-reactive
T2 sequence (Q16881 1-499 isoform Q16881-5): T1 sequence (Q16881 1-499 isoform Q16881-5)
Procedure: The thioredoxin was stored at −20° C. with 5 mM dithiothreitol which was removed before use with a desalting column (PD10, Pharmacia, Uppsala, Sweden).
Asymmetrical 2-imidazolyl disulfides which were used as a basis for further development and identified below in Table 1. In Table I, NADPH oxidation by thioredoxin reductase was measured spectrophotometrically as described with either the disulfide as the electron acceptor (substrate) or with thioredoxin and insulin as the final electron acceptor and the disulfide as inhibitors. The reactions were initiated by the addition of NADPH. Km and Ki values were calculated from Lineweaver-Burk plots of the data.
The compounds of Table 1 were synthesized by a method described previously and recrystallized prior to use. Stock solutions of the disulfides were prepared at 10 mM in ethanol and diluted in aqueous media just prior to use. N-ethylmaleimide (NEM), diamide, and DTT were obtained from Sigma Chemical Co. (St. Louis, Mo.). All other chemicals used were of reagent grade. […]

[4] = target: T3, thioredoxin (Homo sapiens, UniProt P10599); assay: Direct reaction between thioredoxin and disulfides, release of 2-mercaptoimidazole at 252 nm; type: biochemical; conditions: for initial rate for reaction between thioredoxin and disulfide: thioredoxin 2 μM, disulfide 200 μM, pH 7.4, room temperature
T3 construct: made in house; host or cells: E. coli
T3 sequence (P10599 1-105): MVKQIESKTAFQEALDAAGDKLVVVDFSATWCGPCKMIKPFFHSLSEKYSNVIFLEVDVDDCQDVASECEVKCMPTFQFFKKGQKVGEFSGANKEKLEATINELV
Procedure: The effects of the assymetric disulfides of Table I on the reduction of thioredoxin and C73S by thioredoxin reductase was measured spectrophotometrically by following the reduction of NADPH at 339 nm. […] In some studies the disulfides at 3.5 μM were preincubated for up to 24 hr at room temperature in air with 0.7 μM thioredoxin or C73S in 100 μM HEPES buffer, pH 7.6, and 5 mM EDTA, before measuring the reduction of the thioredoxin or C73S by thioredoxin reductase with 1 mg/ml bovine insulin as the final electron acceptor. The ability of the disulfides to act as substrates for glutathione reductase was measured by following the reduction of NADPH using an incubation mixture containing 0.15 μg/ml glutathione reductase, 140 μM NADPH, 100 mM HEPES buffer, pH 7.6, 5 mM EDTA and the disulfides at 500 μM. The ability of the disulfides to act as inhibitors of glutathione reductase was measured using oxidized glutathione, 50 μM, as the final electron acceptor. In both cases the reaction was initiated by the addition of NADPH. Thioredoxin or C32S/C35S, 2 μM, in 0.1 M sodium phosphate buffer, pH 7.4, was reacted with the disulfides at a concentration of 200 μM at room temperature. This direct reaction between thioredoxin and the disulfides was followed spectrophotometrically as the increase in absorbance at 252 nm due to release of 2-mercaptoimidazole. Initial reaction rates were measured in triplicate.
Due to the fact that the disulfides inhibited thioredoxin-dependent cell growth at concentrations below those required to inhibit thioredoxin reductase, a direct effect of the disulfides on thioredoxin was looked for. The initial reaction between the disulfides and thioredoxin was measured spectrophotometrically (FIGS. 2A and 2B). […] This is the order of reactivity which be predicted from the steric and electronic nature of the disulfides thioalkylating groups.

[5] = tested on: HL60 cells; assay: Induction of apoptosis in HL60 cells; type: cell-based, human; conditions: within 8 h of exposure, same concentration
[6] = in vitro; conditions: mouse
[7] = tested on: MCF-7 breast cancer cells in scid mice; assay: Activity against MCF-7 breast cancer cells in scid mice; type: in vivo; conditions: for T/C %: tumor volume treated versus control at day 28
Description: This is shown below in Table II.

[8] = Table 4, read-out: Disulfide inhibition of TR/Trx (IC50 TR/Trx) (converted)
[9] = Table 3, read-out: IC50 TR/Trx (converted)

SMILES	Disulfide inhibition of TR/Trx (IC50 TR/Trx) ([1]; Table 4) [µg/mL]	IC50 [2] [µM]	IC50 at 48 h [6] [µM]	other results
Cc1nnc(SSC(C)C)s1 [Compound E-3]	100	> 180	–	–
CC(C)(C)SSc1ncc[nH]1 [IX-2, t-butyl 2-imidazolyl disulfide]	–	–	–	Type [3]: non-reactive; rate of thiol/disulfide exchange reaction with thioredoxin relative to III-2 [4]: three logs slower; initial rate for reaction between thioredoxin and disulfide ([4]; unit not given, in M/s): 3.0×10^−9; apoptosis of HL60 cells [5]: does not cause apoptosis
CCC(C)SSc1nc2ccccc2s1 (stereo not drawn) [Compound F-11]	–	–	–	IC50 [6]: 33 µM
CC(C)SSc1ncccc1C(=O)O [Compound E-23]	40	> 180	–	–
CCSSc1ncc[nH]1 [VI-2, ethyl 2-imidazolyl disulfide]	–	–	8	Type [3]: substrate; Km ([3]; disulfide as substrate for reduction by thioredoxin reductase, Lineweaver-Burk): 48 µM and 48.1 µM; Toxicity dead/injected ([7]; 4 mg/kg/day i.p. for 14 days): 1/8; T/C % ([7]; 4 mg/kg/day i.p. for 14 days): 83.0%; Toxicity dead/injected ([7]; 6 mg/kg/day i.p. for 14 days): 0/8; T/C % ([7]; 6 mg/kg/day i.p. for 14 days): 65.8%; Toxicity dead/injected ([7]; 12 mg/kg/day i.p. for 14 days): 4/8; T/C % ([7]; 12 mg/kg/day i.p. for 14 days): 64.6%; IC50 [1, 8]: 25 µM
CC(C)SSc1nccn1C [Compound E-2]	100	33	–	–
CCC(C)SSc1nccs1 (stereo not drawn) [Compound F-5]	–	–	34	–
Cc1ccnc(SSC(C)C)n1 [Compound E-24]	60	> 180	–	–
CCC(C)SSc1ncccc1C(=O)O (stereo not drawn) [Compound F-23]	81	> 180	–	–
CCC(C)SSCc1cccc(OC)c1 (stereo not drawn) [Compound F-20]	61	> 180	–	–
CCSSc1nccn1C [Compound A-2]	80	15	–	–
CCC(C)SSCc1ccccc1 (stereo not drawn) [Compound F-19]	>189	108	–	–
CC(O)C(C)SSc1ccccc1 (stereo not drawn) [Compound M-13]	–	–	46	–
CCC(C)SSc1nnc(S)s1 (stereo not drawn) [Compound F-4]	–	–	36	IC50 [1, 9]: 117 µM
CC(SSc1nccs1)c1ccccc1 (stereo not drawn) [Compound J-1]	–	–	28	IC50 [1, 9]: 15.8 µM
CC(O)C(C)SSc1nc2ccccc2o1 (stereo not drawn) [Compound M-29]	–	–	29	–
CCC(C)SSc1nc2cc([N+](=O)[O-])ccc2[nH]1 (stereo not drawn) [Compound F-10]	47	36	–	–
CCC(C)SSc1nccc(C)n1 (stereo not drawn) [Compound F-24]	83	> 180	–	–
CCC(C)SSC(C)c1ccccc1 (stereo not drawn) [Compound F-22]	201	> 180	–	–
c1ccc(CSSc2ncc[nH]2)cc1 [DLK-36, benzyl 2-imidazolyl disulfide]	–	–	22	Type [3]: competitive inhibitors; also recorded: inhibitor; Ki ([3]; competitive inhibitors of the reduction of thioredoxin by thioredoxin reductase): 31 µM; initial rate for reaction between thioredoxin and disulfide [4]: 1.3e-06 M/s; Toxicity dead/injected ([7]; 25 mg/kg/day i.p. for 14 days): 1/8; T/C % ([7]; 25 mg/kg/day i.p. for 14 days): 100.7%; Toxicity dead/injected ([7]; 40 mg/kg/day i.p. for 14 days): 0/6; T/C % ([7]; 40 mg/kg/day i.p. for 14 days): 23.7^c %; tumor inhibition ([7]; MCF-7 tumor system): 65%
CCCCSSc1nccn1C [Compound C-2]	147	26	–	–
CCCSSc1ncc[nH]1 [Compound B-1]	7	21	–	–
CCC(C)SSc1nnc(C)s1 (stereo not drawn) [Compound F-3]	–	–	7	IC50 [1, 9]: 68.1 µM
CC(C)SSc1ncc[nH]1 [Compound E-1]	7	24	–	–
CCC(C)SSc1nc2ccccc2[nH]1 (stereo not drawn) [Compound F-8]	7	73	–	–
CCCSSC1CCCC1 [Compound F-27]	–	–	51	IC50 [1, 8]: 289 µM
CCC(C)SSc1nc2ccccc2o1 (stereo not drawn) [Compound F-12]	22	> 180	–	–
CC(C)CSSc1ncc[nH]1 [Compound G-1]	8	28	–	–
Cc1ccc2[nH]c(SSC(C)C(C)O)nc2c1 (stereo not drawn) [Compound M-9]	–	76	–	–
CCC(C)SSc1nccn1C (stereo not drawn) [Compound F-2]	51	43	–	–
